According to paper PMC7308271, “Discovery of a new class of orthosteric antagonists with nanomolar potency at extrasynaptic GABAA receptors” (Scientific Reports, 2020):
Like-named read-outs stand apart in the source and are kept apart here.

How the values were obtained:
[1] = system: MDR1 (P-glycoprotein), human; assay: Bidirectional membrane permeability in MDR1-MDCK cells; assay type: in vitro ADME, canine; conditions: dog, triplicate, read-out: basal to apical permeability
Experimental: (§1) Bidirectional permeability was tested for 018 and 2027 in the Madin-Darby canine kidney (MDCK) cell line expressing human multidrug resistance protein (MDR1, P-glycoprotein) (referred to as MDR1-MDCK cells) as described previously. To calculate efflux ratio the permeability in the basal-to-apical direction was divided by the permeability in the apical-to-basal direction. The obtained data is from triplicate measurements.

MDR1 (P-glycoprotein) = assay: as above; assay type: in vitro ADME, canine; conditions: dog, both before and after
Experimental: as §1

[2] = biological target: T1, human α1β2δ GABAΑ receptor (Homo sapiens, UniProt P14867+P47870); assay: FMP assay at α1β2δ GABAA receptors in HEK cells; assay type: cell-based
T1 construct: expressed in transfected cells; host or cells: δ-HEK (HEK293 Flp-In stably expressing human δ), transiently transfected with α and β 1:1
T1 sequence (P14867 28-456): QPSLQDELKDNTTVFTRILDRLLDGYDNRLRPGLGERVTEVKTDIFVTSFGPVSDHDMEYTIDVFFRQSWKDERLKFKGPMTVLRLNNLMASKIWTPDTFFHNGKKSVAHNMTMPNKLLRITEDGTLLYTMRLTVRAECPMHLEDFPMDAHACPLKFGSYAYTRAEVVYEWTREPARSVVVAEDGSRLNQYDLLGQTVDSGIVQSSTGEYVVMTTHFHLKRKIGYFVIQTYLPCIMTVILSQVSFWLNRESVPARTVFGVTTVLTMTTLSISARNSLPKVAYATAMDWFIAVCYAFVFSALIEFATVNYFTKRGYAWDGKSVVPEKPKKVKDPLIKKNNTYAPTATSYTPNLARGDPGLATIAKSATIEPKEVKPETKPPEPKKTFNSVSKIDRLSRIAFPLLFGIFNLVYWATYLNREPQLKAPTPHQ
T1 sequence (P47870 25-512 limits assumed): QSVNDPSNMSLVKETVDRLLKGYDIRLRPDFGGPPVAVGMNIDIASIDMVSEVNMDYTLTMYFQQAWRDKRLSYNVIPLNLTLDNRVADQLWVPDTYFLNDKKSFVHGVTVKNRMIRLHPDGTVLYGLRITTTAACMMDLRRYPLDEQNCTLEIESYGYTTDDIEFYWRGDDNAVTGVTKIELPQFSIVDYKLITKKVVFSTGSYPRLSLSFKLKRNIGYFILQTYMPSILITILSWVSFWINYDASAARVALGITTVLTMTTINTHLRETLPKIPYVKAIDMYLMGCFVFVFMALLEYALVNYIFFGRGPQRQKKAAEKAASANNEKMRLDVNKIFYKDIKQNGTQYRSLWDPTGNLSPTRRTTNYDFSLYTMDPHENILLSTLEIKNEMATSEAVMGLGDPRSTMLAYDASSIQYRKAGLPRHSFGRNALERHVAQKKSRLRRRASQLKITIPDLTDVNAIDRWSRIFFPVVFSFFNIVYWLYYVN
T1 sequence (O14764 25-452 partner): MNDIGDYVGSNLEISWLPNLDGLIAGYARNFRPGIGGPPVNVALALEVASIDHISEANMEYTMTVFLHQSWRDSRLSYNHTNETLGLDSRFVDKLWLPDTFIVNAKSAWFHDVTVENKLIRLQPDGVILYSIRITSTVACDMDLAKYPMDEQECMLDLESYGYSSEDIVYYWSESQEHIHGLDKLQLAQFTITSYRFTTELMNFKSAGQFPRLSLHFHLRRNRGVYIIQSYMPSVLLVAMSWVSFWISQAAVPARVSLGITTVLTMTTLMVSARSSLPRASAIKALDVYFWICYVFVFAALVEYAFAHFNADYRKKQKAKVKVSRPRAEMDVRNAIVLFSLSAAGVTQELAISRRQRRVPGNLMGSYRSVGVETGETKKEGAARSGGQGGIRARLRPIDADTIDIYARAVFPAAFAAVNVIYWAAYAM
Experimental: HEK293 cells were maintained in DMEM containing GlutaMAX-I, supplemented with 10% FBS and 1% penicillin-streptomycin and incubated at 37 °C and a humidity of 5% CO2. For expression of δ-containing GABAΑ receptors, a HEK293 Flp-In^ΤΜ cell line stably expressing the human GABAΑ δ-subunits (referred to as δ-HEK) was used and the γ-containing subtypes was expressed in a background HEK293 Flp-In^ΤΜ cell line stably expressing the G-protein coupled peptide receptor NPBWR2 (referred to as HEK background)[26], both positively selected for using 200 μg/mL hygromycin B. α1β2γ2 receptors were stably expressed in a HEK293 cell line maintained as above but with no selection (gift from Marianne L. Jensen, Neurosearch).
To express recombinant GABAΑ receptors human α1, α2, α3, α5, α6, β2, γ2 (pcDNA3.1/Zeo) and α4, β1 (pUNIV)[26] subunit cDNA were transiently transfected into either δ-HEK or HEK background cells. δ-HEK cells were transfected with α- and β-subunits in a 1:1 ration whereas HEK background cells were transfected with α-, β- and γ-subunits in a 1:1:2 ratio. Human BGT1 (pcDNA5/FRT)[43] was transiently transfected into the δ-HEK cell line. δ-HEK cells transfected for whole-cell patch-clamp recordings were co-transfected with green fluorescent protein (GFP) as well as α- and β-subunits in a 0.5:1:1 ratio (0.8 μg + 1.6 μg + 1.6 μg in a 6 cm dish) in order to identify transfected cells. The transfection was carried out using Polyfect as transfection reagent according to the manufactures protocol expect for using half the recommended volume of Polyfect.
The FMP assay was performed as previously described with a few modifications. Briefly, HEK cells were transfected as described[26] and 16–20 hours later plated (50,000 cells/well in DMEM medium) into clear-bottomed black 96-well plates coated with poly-D-lysine and the assay performed 20–28 hours later. The assay protocol including the FMP blue dye incorporation into membranes was exactly as described in Falk-Petersen et al.[26]. […] Data was obtained as changes in fluorescence units (∆RFU) by measuring emission at 560 nm caused by excitation at 530 nm. Unless otherwise mentioned in the text or figure legends experiments were performed in at least three independent experiments each using three technical replicates. Due to an observed edge effect for the FMP assay, outer wells were not used except for the screening.
Data obtained in the FMP assay are given as relative changes in fluorescence units (ΔRFU) by subtracting the average of the baseline fluorescence signal from the peak fluorescence signal after compound addition. All raw traces were inspected manually and peak signals resulting from compound/buffer addition together with signal artefacts were omitted from the analysis.
The concentration-response curves obtained in the FMP assay for both agonists (determining EC50 values) and antagonists (determining IC50 values) were fitted using the four-parameter concentration-response model: Response=bottom+top−bottom/1+10^[(logEC50-A)⋅nH] EC/IC50 values describe the concentration resulting in the half-maximal response (halfway between top and bottom), and nΗ is the Hill coefficient. […] Gaddum Schild analysis was performed using GraphPad Prism version 8.2.1 (GraphPad Software Inc., San Diego, CA, USA). EC50/IC50 values obtained in the FMP assay are given as means ± SEM from at least three independent experiments with three technical replicates, as specified in the individual figure legends.

[3] = antagonist activity vs GABA EC80 10–14 μM, mean, read-out: IC50
[4] = vs GABA EC80, read-out: pIC50 ± SEM (converted)

Papp B→A [1] [×10⁻⁶ cm/s]	recovery (MDR1 (P-glycoprotein)) [%]	IC50 [2, 3] [µM]	IC50 [2, 4] [µM]	potency reduction of 2027 compared to 018 [2] [times]	SMILES	GABA EC80 ([2]; calculated from GABA potencies, used in antagonist tests) [µM]
0.79	> 85	0.24	0.245		O=C(Nc1cccc(C(=O)N2CCC3(CCNCC3)CC2)c1)c1cccs1 [compound 018, N-(3-(3,9-diazaspiro[5.5]undecane-3-carbonyl)phenyl)thiophene-2-carboxamide]	
					NCCCC(=O)O [GABA]	10 to 14
0.67	> 85	6.68	6.76	28	CC(=O)Nc1cccc(C(=O)N2CCC3(CCNCC3)CC2)c1 [compound 2027, N-(3-(3,9-diazaspiro[5.5]undecane-3-carbonyl)phenyl)acetamide]	
